Reference: ChEMBL document CHEMBL1142254, “5'-Fluoro-5'-deoxyaristeromycin” (Bioorg Med Chem Lett, 2008)
Calls of active or inactive are those of the source.

Tests used:
Human alphaherpesvirus 1 [1] = assay: Antiviral activity against HSV1; type: functional, organism-based
Human alphaherpesvirus 2 = assay: Antiviral activity against HSV2; type: functional, organism-based
Human alphaherpesvirus 1 [2] = assay: Antiviral activity against thymidine kinase deficient HSV1; type: functional, organism-based
Vaccinia virus = assay: Antiviral activity against vaccinia virus; type: functional, organism-based; conditions: Orthopoxvirus vaccinia
Cowpox virus = assay: Antiviral activity against Cowpox virus; type: functional, organism-based
[3] = system: Vesicular stomatitis virus; assay: Antiviral activity against in Vesicular stomatitis virus; type: functional, organism-based
Coxsackievirus B4 = assay: Antiviral activity against Coxsackie virus B4; type: functional, organism-based
[4] = system: Respiratory syncytial virus; assay: Antiviral activity against RSV; type: functional, organism-based
Human respirovirus 3 = assay: Antiviral activity against Parainfluenza 3 virus; type: functional, organism-based
[5] = system: Mammalian orthoreovirus 1; assay: Antiviral activity against Reovirus1; type: functional, organism-based
Sindbis virus = assay: Antiviral activity against Sindbis virus; type: functional, organism-based
Punta Toro virus = assay: Antiviral activity against Punta Toro virus; type: functional, organism-based
Enterovirus = assay: Antiviral activity against rhinovirus; type: functional, organism-based
unidentified adenovirus = assay: Antiviral activity against adenovirus; type: functional, organism-based
Hepatitis C virus = assay: Antiviral activity against HCV; type: functional, organism-based; conditions: Hepacivirus hominis
West Nile virus = assay: Antiviral activity against West Nile virus; type: functional, organism-based
Feline coronavirus = assay: Antiviral activity against Feline coronavirus; type: functional, organism-based
Measles morbillivirus [6] = assay: Antiviral activity against measles virus MO6 by neutral red assay; type: functional, organism-based
Measles morbillivirus [7] = assay: Antiviral activity against measles virus MO6 by visual assay; type: functional, organism-based
HEL = assay: Cytotoxicity against human HEL cells; type: cell-based
HeLa = assay: Cytotoxicity against human HeLa cells; type: cell-based
Vero = assay: Cytotoxicity against african green monkey Vero cells; type: cell-based; conditions: chlorocebus sabaeus
[8] = Cytotoxicity against african green monkey CV1 cells; type: cell-based; conditions: chlorocebus aethiops, cv-1
[9] = Cytotoxicity against rhesus monkey MA104 cells; type: cell-based, Macaca mulatta
A549 = assay: Cytotoxicity against human A549 cells; type: cell-based
MDCK = assay: Cytotoxicity against dog MDCK cells; type: cell-based, Canis lupus familiaris
[10] = Cytotoxicity against cat CRFK cells; type: cell-based, Felis catus
HFF = assay: Cytotoxicity against human HFF cells; type: cell-based
[11] = Cytotoxicity against human Huh7ET cells; type: cell-based; conditions: huh-7

Nc1ncnc2c1ncn2[C@@H]1C[C@H](CF)[C@@H](O)[C@H]1O
13 µM: EC50 (Measles morbillivirus [7])
Non-toxic: Activity (HEL) | Activity (HeLa) | Activity (Vero) | Activity [8] | Activity [9] | Activity (A549) | Activity (MDCK) | Activity [10] | Activity (HFF) | Activity [11]
inactive: Activity (Human alphaherpesvirus 1 [1]) | Activity (Human alphaherpesvirus 2) | Activity (Human alphaherpesvirus 1 [2]) | Activity (Vaccinia virus) | Activity (Cowpox virus) | Activity [3] | Activity (Coxsackievirus B4) | Activity [4] | Activity (Human respirovirus 3) | Activity [5] | Activity (Sindbis virus) | Activity (Punta Toro virus) | Activity (Enterovirus) | Activity (unidentified adenovirus) | Activity (Hepatitis C virus) | Activity (West Nile virus) | Activity (Feline coronavirus)
2.8 µM: EC50 (Measles morbillivirus [6])
